Source: patent publication US20240158446A1, “CYCLIC COMPOUND HAVING SELECTIVE INHIBITORY ACTION ON KRAS OVER HRAS AND NRAS” (CHUGAI SEIYAKU KABUSHIKI KAISHA, priority 2021, published 2024)
Where a SMILES comes first, the peptide text is derived from it. Bridges are numbered along the chain shown (N, C = ends). [ ]: non-standard residue; d: D form. The star is where a group is joined. hPhe(3-Cl-4-CF3) = N[C@@H](CCc1ccc(C(F)(F)F)c(Cl)c1)C(=O)O; NPrPhe(4-CF3) = CCCN[C@@H](Cc1ccc(C(F)(F)F)cc1)C(=O)O; NMeGly(cPent) = CN[C@H](C(=O)O)C1CCCC1; Pro(4,4-F2) = O=C(O)[C@@H]1CC(F)(F)CN1; Hyp = O=C(O)[C@@H]1C[C@@H](O)CN1; NMeL = CN[C@@H](CC(C)C)C(=O)O; Morpholide = C1CN(*)CCO1; NMeA = CN[C@@H](C)C(=O)O; Ac5c = NC1(C(=O)O)CCCC1; Aze = O=C(O)[C@@H]1CCN1; Ac4c = NC1(C(=O)O)CCC1; Sar = CNCC(=O)O

Experiments:
[1] = molecular target: GDP-bound HRAS wild-type protein (Homo sapiens, UniProt P01112); experiment: Binding to HRAS by surface plasmon resonance (SPR), Single Cycle Kinetics; conditions: SPR, GDP-bound HRAS wild-type protein vs GDP-bound KRAS wild-type protein
Sequence of GDP-bound HRAS wild-type protein (P01112 whole entry): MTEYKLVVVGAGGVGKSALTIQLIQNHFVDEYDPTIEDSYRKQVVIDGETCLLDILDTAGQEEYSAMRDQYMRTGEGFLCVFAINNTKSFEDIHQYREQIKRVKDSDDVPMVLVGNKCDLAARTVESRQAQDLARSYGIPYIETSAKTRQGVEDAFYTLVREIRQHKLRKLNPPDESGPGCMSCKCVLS

[2] = molecular target: GDP-bound NRAS wild-type protein (Homo sapiens, UniProt P01111); experiment: Binding to NRAS by surface plasmon resonance (SPR), Single Cycle Kinetics; conditions: SPR, GDP-bound NRAS wild-type protein vs GDP-bound KRAS wild-type protein
Sequence of GDP-bound NRAS wild-type protein (P01111 whole entry): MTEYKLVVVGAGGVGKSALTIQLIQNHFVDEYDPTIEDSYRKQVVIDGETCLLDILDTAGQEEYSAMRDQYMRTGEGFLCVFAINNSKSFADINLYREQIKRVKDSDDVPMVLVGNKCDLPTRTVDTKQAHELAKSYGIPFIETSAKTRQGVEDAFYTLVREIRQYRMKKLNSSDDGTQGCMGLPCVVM

[3] = molecular target: GDP-bound KRAS wild-type protein (Homo sapiens, UniProt P01116); experiment: Binding to KRAS by surface plasmon resonance (SPR), Single Cycle Kinetics; conditions: SPR Single Cycle Kinetics, GDP-bound KRAS wild-type protein, 1:1 binding model; read-out: KRAS KD
Sequence of GDP-bound KRAS wild-type protein (P01116 whole entry): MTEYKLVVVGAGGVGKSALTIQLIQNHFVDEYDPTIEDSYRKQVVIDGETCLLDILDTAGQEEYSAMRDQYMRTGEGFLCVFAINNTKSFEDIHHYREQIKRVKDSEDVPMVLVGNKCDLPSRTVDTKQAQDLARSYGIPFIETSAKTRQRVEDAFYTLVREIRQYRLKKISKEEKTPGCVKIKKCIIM

CCCN1C(=O)CN(C)C(=O)[C@@H]2CCN2C(=O)[C@H]([C@@H](C)CC)NC(=O)[C@H](CC(C)C)N(C)C(=O)C[C@@H](C(=O)N2CCOCC2)NC(=O)[C@H](C2CCCC2)N(C)C(=O)C2(CCC2)NC(=O)[C@@H]2C[C@@H](OCC)CN2C(=O)[C@H](CCc2ccc(C(F)(F)F)c(Cl)c2)NC(=O)CN(C)C(=O)[C@@H]1Cc1ccc(C(F)(F)F)cc1 [PP0342] ([NMeL]I[Aze][Sar][NPrPhe(4-CF3)][Sar][hPhe(3-Cl-4-CF3)][Hyp](Et)[Ac4c][NMeGly(cPent)]D-Morpholide; lactam N-11)
HRAS/KRAS (ratio of KD value for HRAS to KD value for KRAS) [1]: B (a compound having 3 or more and less than 10 is denoted as B)
NRAS/KRAS (ratio of KD value for NRAS to KD value for KRAS) [2]: B (a compound having 3 or more and less than 10 is denoted as B)
Kd [3]: 1.7 nM

CCCN1C(=O)[C@@H]2CCN2C(=O)[C@H](C)N(C)C(=O)[C@H]([C@@H](C)CC)NC(=O)[C@H](CC(C)C)N(C)C(=O)C[C@@H](C(=O)N2CCOCC2)NC(=O)[C@H](C2CCCC2)N(C)C(=O)C2(CCCC2)NC(=O)[C@@H]2CCCN2C(=O)[C@H](CCc2ccc(C(F)(F)F)c(Cl)c2)NC(=O)CN(C)C(=O)[C@@H]1Cc1ccc(C(F)(F)F)cc1 [PP0343] ([NMeL]I[NMeA][Aze][NPrPhe(4-CF3)][Sar][hPhe(3-Cl-4-CF3)]P[Ac5c][NMeGly(cPent)]D-Morpholide; lactam N-11)
HRAS/KRAS (ratio of KD value for HRAS to KD value for KRAS) [1]: B (a compound having 3 or more and less than 10 is denoted as B)
NRAS/KRAS (ratio of KD value for NRAS to KD value for KRAS) [2]: C (A compound having a KD ratio of 0.1 or more and less than 3 is denoted as C)
Kd [3]: 1.3 nM

CCCN1C(=O)[C@@H]2CCN2C(=O)[C@H](C)N(C)C(=O)[C@H]([C@@H](C)CC)NC(=O)[C@H](CC(C)C)N(C)C(=O)C[C@@H](C(=O)N2CCOCC2)NC(=O)[C@H](C2CCCC2)N(C)C(=O)C2(CCC2)NC(=O)[C@@H]2CCCN2C(=O)[C@H](CCc2ccc(C(F)(F)F)c(Cl)c2)NC(=O)CN(C)C(=O)[C@@H]1Cc1ccc(C(F)(F)F)cc1 [PP0344] ([NMeL]I[NMeA][Aze][NPrPhe(4-CF3)][Sar][hPhe(3-Cl-4-CF3)]P[Ac4c][NMeGly(cPent)]D-Morpholide; lactam N-11)
HRAS/KRAS (ratio of KD value for HRAS to KD value for KRAS) [1]: B (a compound having 3 or more and less than 10 is denoted as B)
NRAS/KRAS (ratio of KD value for NRAS to KD value for KRAS) [2]: C (A compound having a KD ratio of 0.1 or more and less than 3 is denoted as C)
Kd [3]: 1.1 nM

CCCN1C(=O)[C@@H]2CCN2C(=O)[C@H](C)N(C)C(=O)[C@H]([C@@H](C)CC)NC(=O)[C@H](CC(C)C)N(C)C(=O)C[C@@H](C(=O)N2CCOCC2)NC(=O)[C@H](C2CCCC2)N(C)C(=O)C2(CCCC2)NC(=O)[C@@H]2CC(F)(F)CN2C(=O)[C@H](CCc2ccc(C(F)(F)F)c(Cl)c2)NC(=O)CN(C)C(=O)[C@@H]1Cc1ccc(C(F)(F)F)cc1 [PP0345] ([NMeL]I[NMeA][Aze][NPrPhe(4-CF3)][Sar][hPhe(3-Cl-4-CF3)][Pro(4,4-F2)][Ac5c][NMeGly(cPent)]D-Morpholide; lactam N-11)
HRAS/KRAS (ratio of KD value for HRAS to KD value for KRAS) [1]: B (a compound having 3 or more and less than 10 is denoted as B)
NRAS/KRAS (ratio of KD value for NRAS to KD value for KRAS) [2]: C (A compound having a KD ratio of 0.1 or more and less than 3 is denoted as C)
Kd [3]: 1.3 nM

CCCN1C(=O)[C@@H]2CCN2C(=O)[C@H](C)N(C)C(=O)[C@H]([C@@H](C)CC)NC(=O)[C@H](CC(C)C)N(C)C(=O)C[C@@H](C(=O)N2CCOCC2)NC(=O)[C@H](C2CCCC2)N(C)C(=O)C2(CCC2)NC(=O)[C@@H]2CC(F)(F)CN2C(=O)[C@H](CCc2ccc(C(F)(F)F)c(Cl)c2)NC(=O)CN(C)C(=O)[C@@H]1Cc1ccc(C(F)(F)F)cc1 [PP0346] ([NMeL]I[NMeA][Aze][NPrPhe(4-CF3)][Sar][hPhe(3-Cl-4-CF3)][Pro(4,4-F2)][Ac4c][NMeGly(cPent)]D-Morpholide; lactam N-11)
HRAS/KRAS (ratio of KD value for HRAS to KD value for KRAS) [1]: B (a compound having 3 or more and less than 10 is denoted as B)
NRAS/KRAS (ratio of KD value for NRAS to KD value for KRAS) [2]: C (A compound having a KD ratio of 0.1 or more and less than 3 is denoted as C)
Kd [3]: 1.2 nM

CCCN1C(=O)[C@@H]2CCN2C(=O)[C@H](C)N(C)C(=O)[C@H]([C@@H](C)CC)NC(=O)[C@H](CC(C)C)N(C)C(=O)C[C@@H](C(=O)N2CCOCC2)NC(=O)[C@H](C2CCCC2)N(C)C(=O)C2(CCCC2)NC(=O)[C@@H]2C[C@@H](OCC)CN2C(=O)[C@H](CCc2ccc(C(F)(F)F)c(Cl)c2)NC(=O)CN(C)C(=O)[C@@H]1Cc1ccc(C(F)(F)F)cc1 [PP0347] ([NMeL]I[NMeA][Aze][NPrPhe(4-CF3)][Sar][hPhe(3-Cl-4-CF3)][Hyp](Et)[Ac5c][NMeGly(cPent)]D-Morpholide; lactam N-11)
HRAS/KRAS (ratio of KD value for HRAS to KD value for KRAS) [1]: B (a compound having 3 or more and less than 10 is denoted as B)
NRAS/KRAS (ratio of KD value for NRAS to KD value for KRAS) [2]: C (A compound having a KD ratio of 0.1 or more and less than 3 is denoted as C)
Kd [3]: 0.36 nM

CCCN1C(=O)[C@@H]2CCN2C(=O)[C@H](C)N(C)C(=O)[C@H]([C@@H](C)CC)NC(=O)[C@H](CC(C)C)N(C)C(=O)C[C@@H](C(=O)N2CCOCC2)NC(=O)[C@H](C2CCCC2)N(C)C(=O)C2(CCC2)NC(=O)[C@@H]2C[C@@H](OCC)CN2C(=O)[C@H](CCc2ccc(C(F)(F)F)c(Cl)c2)NC(=O)CN(C)C(=O)[C@@H]1Cc1ccc(C(F)(F)F)cc1 [PP0348] ([NMeL]I[NMeA][Aze][NPrPhe(4-CF3)][Sar][hPhe(3-Cl-4-CF3)][Hyp](Et)[Ac4c][NMeGly(cPent)]D-Morpholide; lactam N-11)
HRAS/KRAS (ratio of KD value for HRAS to KD value for KRAS) [1]: B (a compound having 3 or more and less than 10 is denoted as B)
NRAS/KRAS (ratio of KD value for NRAS to KD value for KRAS) [2]: C (A compound having a KD ratio of 0.1 or more and less than 3 is denoted as C)
Kd [3]: 0.38 nM

CCCN1C(=O)[C@@H]2CCN2C(=O)CN(C)C(=O)[C@H]([C@@H](C)CC)NC(=O)[C@H](CC(C)C)N(C)C(=O)C[C@@H](C(=O)N2CCOCC2)NC(=O)[C@H](C2CCCC2)N(C)C(=O)C2(CCCC2)NC(=O)[C@@H]2CCCN2C(=O)[C@H](CCc2ccc(C(F)(F)F)c(Cl)c2)NC(=O)CN(C)C(=O)[C@@H]1Cc1ccc(C(F)(F)F)cc1 [PP0349] ([NMeL]I[Sar][Aze][NPrPhe(4-CF3)][Sar][hPhe(3-Cl-4-CF3)]P[Ac5c][NMeGly(cPent)]D-Morpholide; lactam N-11)
HRAS/KRAS (ratio of KD value for HRAS to KD value for KRAS) [1]: B (a compound having 3 or more and less than 10 is denoted as B)
NRAS/KRAS (ratio of KD value for NRAS to KD value for KRAS) [2]: C (A compound having a KD ratio of 0.1 or more and less than 3 is denoted as C)
Kd [3]: 0.73 nM

CCCN1C(=O)[C@@H]2CCN2C(=O)CN(C)C(=O)[C@H]([C@@H](C)CC)NC(=O)[C@H](CC(C)C)N(C)C(=O)C[C@@H](C(=O)N2CCOCC2)NC(=O)[C@H](C2CCCC2)N(C)C(=O)C2(CCC2)NC(=O)[C@@H]2CCCN2C(=O)[C@H](CCc2ccc(C(F)(F)F)c(Cl)c2)NC(=O)CN(C)C(=O)[C@@H]1Cc1ccc(C(F)(F)F)cc1 [PP0350] ([NMeL]I[Sar][Aze][NPrPhe(4-CF3)][Sar][hPhe(3-Cl-4-CF3)]P[Ac4c][NMeGly(cPent)]D-Morpholide; lactam N-11)
HRAS/KRAS (ratio of KD value for HRAS to KD value for KRAS) [1]: B (a compound having 3 or more and less than 10 is denoted as B)
NRAS/KRAS (ratio of KD value for NRAS to KD value for KRAS) [2]: C (A compound having a KD ratio of 0.1 or more and less than 3 is denoted as C)
Kd [3]: 1.1 nM

CCCN1C(=O)[C@@H]2CCN2C(=O)CN(C)C(=O)[C@H]([C@@H](C)CC)NC(=O)[C@H](CC(C)C)N(C)C(=O)C[C@@H](C(=O)N2CCOCC2)NC(=O)[C@H](C2CCCC2)N(C)C(=O)C2(CCCC2)NC(=O)[C@@H]2CC(F)(F)CN2C(=O)[C@H](CCc2ccc(C(F)(F)F)c(Cl)c2)NC(=O)CN(C)C(=O)[C@@H]1Cc1ccc(C(F)(F)F)cc1 [PP0351] ([NMeL]I[Sar][Aze][NPrPhe(4-CF3)][Sar][hPhe(3-Cl-4-CF3)][Pro(4,4-F2)][Ac5c][NMeGly(cPent)]D-Morpholide; lactam N-11)
HRAS/KRAS (ratio of KD value for HRAS to KD value for KRAS) [1]: B (a compound having 3 or more and less than 10 is denoted as B)
NRAS/KRAS (ratio of KD value for NRAS to KD value for KRAS) [2]: C (A compound having a KD ratio of 0.1 or more and less than 3 is denoted as C)
Kd [3]: 1.1 nM

CCCN1C(=O)[C@@H]2CCN2C(=O)CN(C)C(=O)[C@H]([C@@H](C)CC)NC(=O)[C@H](CC(C)C)N(C)C(=O)C[C@@H](C(=O)N2CCOCC2)NC(=O)[C@H](C2CCCC2)N(C)C(=O)C2(CCC2)NC(=O)[C@@H]2CC(F)(F)CN2C(=O)[C@H](CCc2ccc(C(F)(F)F)c(Cl)c2)NC(=O)CN(C)C(=O)[C@@H]1Cc1ccc(C(F)(F)F)cc1 [PP0352] ([NMeL]I[Sar][Aze][NPrPhe(4-CF3)][Sar][hPhe(3-Cl-4-CF3)][Pro(4,4-F2)][Ac4c][NMeGly(cPent)]D-Morpholide; lactam N-11)
HRAS/KRAS (ratio of KD value for HRAS to KD value for KRAS) [1]: B (a compound having 3 or more and less than 10 is denoted as B)
NRAS/KRAS (ratio of KD value for NRAS to KD value for KRAS) [2]: C (A compound having a KD ratio of 0.1 or more and less than 3 is denoted as C)
Kd [3]: 0.82 nM

CCCN1C(=O)[C@@H]2CCN2C(=O)CN(C)C(=O)[C@H]([C@@H](C)CC)NC(=O)[C@H](CC(C)C)N(C)C(=O)C[C@@H](C(=O)N2CCOCC2)NC(=O)[C@H](C2CCCC2)N(C)C(=O)C2(CCCC2)NC(=O)[C@@H]2C[C@@H](OCC)CN2C(=O)[C@H](CCc2ccc(C(F)(F)F)c(Cl)c2)NC(=O)CN(C)C(=O)[C@@H]1Cc1ccc(C(F)(F)F)cc1 [PP0353] ([NMeL]I[Sar][Aze][NPrPhe(4-CF3)][Sar][hPhe(3-Cl-4-CF3)][Hyp](Et)[Ac5c][NMeGly(cPent)]D-Morpholide; lactam N-11)
HRAS/KRAS (ratio of KD value for HRAS to KD value for KRAS) [1]: B (a compound having 3 or more and less than 10 is denoted as B)
NRAS/KRAS (ratio of KD value for NRAS to KD value for KRAS) [2]: C (A compound having a KD ratio of 0.1 or more and less than 3 is denoted as C)
Kd [3]: 0.47 nM
